Assay results published in the supplement of paper PMC8671470.

Tests used:
Details in all cases: 72 h
MOLM-13 [1] = system: MOLM-13
Summary of the method: (§1)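 Fifteen myeloid leukaemia lines in RPMI 1640 were treated for 72 h at 37 °C and 5% CO2 with five tenfold doses from 1 to 10,000 nM, in duplicate. ATP luminescence was normalised to vehicle and to a positive control at 10 µM, then fitted with a four-parameter log-logistic model. The IC50 came from these fits.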

ML-2 [2] = system: ML-2
Summary of the method: as §1

SHI-1 [3] = system: SHI-1
Summary of the method: as §1

KCL-22 [4] = system: KCL-22
Summary of the method: as §1

KG-1 [5] = system: KG-1
Summary of the method: as §1

BV-173 [6] = system: BV-173
Summary of the method: as §1

Mono-Mac-6 [7] = system: Mono-Mac-6
Summary of the method: as §1

LAMA-84 [8] = system: LAMA-84
Summary of the method: as §1

HEL [9] = system: HEL
Summary of the method: as §1

THP-1 [10] = system: THP-1
Summary of the method: as §1

MV4-11 [11] = system: MV4-11
Summary of the method: as §1

HL-60 [12] = system: HL-60
Summary of the method: as §1

KU-812 [13] = system: KU-812
Summary of the method: as §1

NOMO-1 [14] = system: NOMO-1
Summary of the method: as §1

K-562 [15] = system: K-562
Summary of the method: as §1

MOLM-13 [16] = test: cell viability (% survival relative to DMSO control, bortezomib = 0%); higher = less cytotoxic
Summary of the method: (§2)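 Fifteen myeloid leukaemia cell lines (10 AML, 5 CML) were seeded at a density titrated to the linear growth range. They went into 384-well plates with compounds pre-printed at 1, 10, 100, 1000 or 10000 nM in duplicate. After 72 h at 37 °C with 5% CO2, viability was read by CellTiter-Glo luminescence. Values are percent survival, with vehicle set to 100% and a 10 µM positive control to 0%, averaged over the duplicates.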

ML-2 [17] = test: as above
Summary of the method: as §2

SHI-1 [18] = test: as above
Summary of the method: as §2

KCL-22 [19] = test: as above
Summary of the method: as §2

KG-1 [20] = test: as above
Summary of the method: as §2

BV-173 [21] = test: as above
Summary of the method: as §2

Mono-Mac-6 [22] = test: as above
Summary of the method: as §2

LAMA-84 [23] = test: as above
Summary of the method: as §2

HEL [24] = test: as above
Summary of the method: as §2

THP-1 [25] = test: as above
Summary of the method: as §2

MV4-11 [26] = test: as above
Summary of the method: as §2

HL-60 [27] = test: as above
Summary of the method: as §2

KU-812 [28] = test: as above
Summary of the method: as §2

NOMO-1 [29] = test: as above
Summary of the method: as §2

K-562 [30] = test: as above
Summary of the method: as §2

C[C@]12C=CC(=O)C=C1CC[C@@H]1[C@@H]2[C@@H](O)C[C@@]2(C)[C@H]1CC[C@]2(O)C(=O)CO [Prednisolone]
Details	IC50 (cell viability) [µM]
BV-173 [6]	0.0525
HEL [9]	> 10
HL-60 [12]	> 10
K-562 [15]	> 10
KCL-22 [4]	0.524
KG-1 [5]	> 10
KU-812 [13]	> 10
LAMA-84 [8]	> 10
ML-2 [2]	> 10
MOLM-13 [1]	> 10
MV4-11 [11]	> 10
Mono-Mac-6 [7]	> 10
NOMO-1 [14]	> 10
SHI-1 [3]	> 10
THP-1 [10]	> 10

cell viability [%]
Details	1 nM	10 nM	100 nM	1000 nM	10000 nM
BV-173 [21]	82.5	104	18.8	1.67	2.49
HEL [24]	105	114	109	109	105
HL-60 [27]	93.2	93.5	104	114	116
K-562 [30]	112	88.7	104	99	92.6
KCL-22 [19]	94.2	111	82.5	45.4	43
KG-1 [20]	115	105	87.7	91.3	71.4
KU-812 [28]	87.2	104	99.8	124	112
LAMA-84 [23]	94.1	106	92.6	88.5	81.5
ML-2 [17]	91.5	104	115	114	104
MOLM-13 [16]	94.3	96	118	106	109
MV4-11 [26]	95.2	110	143	142	107
Mono-Mac-6 [22]	93.7	90.3	151	157	140
NOMO-1 [29]	93.3	103	109	88.7	87.3
SHI-1 [18]	97.7	95.7	97.9	67.6	71.9
THP-1 [25]	92	96.4	106	108	102

C=CCN(C)CCCCCCOc1ccc(C(=O)c2ccc(Br)cc2)c(F)c1.O=C(O)/C=C/C(=O)O [Ro 48-8071 fumarate]
Details	IC50 (cell viability) [µM]
BV-173 [6]	1.79
HEL [9]	> 10
HL-60 [12]	5.92
K-562 [15]	2.06
KCL-22 [4]	> 10
KG-1 [5]	6.11
KU-812 [13]	9.97
LAMA-84 [8]	8.49
ML-2 [2]	> 10
MOLM-13 [1]	> 10
MV4-11 [11]	5.95
Mono-Mac-6 [7]	> 10
NOMO-1 [14]	> 10
SHI-1 [3]	> 10
THP-1 [10]	> 10

cell viability [%]
Details	1 nM	10 nM	100 nM	1000 nM	10000 nM
BV-173 [21]	90.3	86.2	66.2	63.3	29.5
HEL [24]	112	102	102	109	86.7
HL-60 [27]	115	88.4	84.3	98.8	24.7
K-562 [30]	87	104	102	82.2	19.6
KCL-22 [19]	99.6	98.6	96.3	87.4	77.5
KG-1 [20]	110	101	78.5	80.7	52.3
KU-812 [28]	90.2	92.4	76.2	80.7	43.3
LAMA-84 [23]	90.6	100	81.1	83.8	47
ML-2 [17]	106	98.5	106	96.4	68.9
MOLM-13 [16]	132	113	88.9	89.1	62.2
MV4-11 [26]	91.5	114	84.4	83.4	50.6
Mono-Mac-6 [22]	92.2	87.6	92.4	96	63.8
NOMO-1 [29]	104	97	98.1	105	92.7
SHI-1 [18]	103	100	101	105	58.5
THP-1 [25]	102	91.7	105	101	80.3

CN(CCOc1ccc(Cc2sc(O)nc2O)cc1)c1ccccn1 [Rosiglitazone]
Details	IC50 (cell viability) [µM]
BV-173 [6]	> 10
HEL [9]	> 10
HL-60 [12]	> 10
K-562 [15]	> 10
KCL-22 [4]	> 10
KG-1 [5]	> 10
KU-812 [13]	> 10
LAMA-84 [8]	> 10
ML-2 [2]	> 10
MOLM-13 [1]	> 10
MV4-11 [11]	> 10
Mono-Mac-6 [7]	0.0852
NOMO-1 [14]	> 10
SHI-1 [3]	> 10
THP-1 [10]	> 10

cell viability [%]
Details	1 nM	10 nM	100 nM	1000 nM	10000 nM
BV-173 [21]	96.7	101	81	97.7	101
HEL [24]	110	110	113	110	91.9
HL-60 [27]	97.8	111	107	127	168
K-562 [30]	96.6	109	98.5	98.7	85.4
KCL-22 [19]	96.4	113	110	94.2	102
KG-1 [20]	91.4	110	94.3	101	91.2
KU-812 [28]	98.9	111	92.5	95.4	90.3
LAMA-84 [23]	99.3	106	100	95.6	97.4
ML-2 [17]	106	108	95.6	120	115
MOLM-13 [16]	107	115	118	130	122
MV4-11 [26]	107	105	105	95	93.5
Mono-Mac-6 [22]	95.9	92.6	54.5	25.2	24.8
NOMO-1 [29]	109	107	97.8	105	102
SHI-1 [18]	102	123	111	116	103
THP-1 [25]	101	101	88.6	90.6	93.5
